Here are results for 89 molecules from PubChem BioAssay AID2305 (GlaxoSmithKline (GSK), 2010).

This test relates to P. falciparum 3D7 growth, pLDH absorbance. The test can be described thus: P. falciparum 3D7 growth inhibition, dose response, strain 3D7 (AID 2305).

The molecule `CC(C)N(Cc1ccc(-c2ccc(C(F)(F)F)cc2)cc1)C(=O)Cn1c(SCc2cccc(F)c2F)cc(=O)c2cc(CN3CCCCC3)ccc21` showed an IC50 of 870 nM.

Turning to `COc1c(C=NNc2nc(Nc3ccccc3)nc(Nc3ccccc3)n2)ccc(Br)c1O`, the IC50 turned out to be 720 nM.

As to `Cc1ccccc1C1CCN(C2CCC(NC(=O)c3ccc(-c4ccccc4F)o3)CC2)CC1` (centres undefined), the IC50 is 1050 nM.

On to `COc1ccccc1CCCN1C(=O)C(c2ccccc2)(c2ccccc2)N=C1N`, for which the IC50 stood at 270 nM.

`CCC(C)c1ccc(O)c(NC(=O)c2cncc(Br)c2)c1` (centres undefined) gave an IC50 of 800 nM.

Molecule `O=C(NCCc1ccc(Cl)c(Cl)c1)c1ccc(CNC(=O)c2ccc(O)c(-c3ccc(Cl)c(Cl)c3)c2)cc1` registered an IC50 of 810 nM.

`COc1cc(Nc2ncc3c(C)nc(-c4cc5ccccc5[nH]4)n3n2)cc(OC)c1OC`: the IC50 worked out at 1020 nM.

Take `O[C@@H](c1cccc(OCc2ccccc2)c1)[C@@H]1CN(CCc2ccccc2)CC[C@@]1(O)c1ccccc1`: the IC50 stood at 220 nM.

`Cc1ccc(CNC(=O)c2cc3c(=O)n4ccccc4nc3n(CCCN3CCOCC3)c2=N)cc1` yielded an IC50 of 1090 nM.

The molecule `COc1ccc2nccc([C@@H](O)CN3CCC(NC(=O)C(c4cc5ccccc5o4)N4CCC(Cc5ccccc5)CC4)CC3)c2c1` (some centres undefined) registered an IC50 of 250 nM.

Regarding `CCOC(=O)c1c(NC(NC(=O)c2ccc(C(C)(C)C)cc2)C(Cl)(Cl)Cl)sc2c1CCCC2` (centres undefined), the half-maximal inhibitory concentration (IC50) came to 810 nM.

With `Cc1ccnc(NC(c2cccc(Cl)c2Cl)c2ccc3cccnc3c2O)c1` (centres undefined), the IC50 came to 1000 nM.

Regarding `Cc1csc(-c2nonc2NC(=O)COc2ccccc2C(C)C)n1`, the IC50 worked out at 550 nM.

As for `CC(C)(C)c1nn(-c2ccccc2)c2[nH]c(=O)c(CNCCc3ccccc3)cc12`, the IC50 amounted to 870 nM.

`O=C(Nc1ccc(Cl)cc1)c1ccc(CN2CCCN(Cc3cccc(F)c3)CC2)cc1` came in with a concentration for half-maximal inhibition (IC50) of 1030 nM.

Turning to `COc1cccc(C(NC(=O)c2ccccc2)c2ccc3cccnc3c2O)c1` (centres undefined), the IC50 turned out to be 1080 nM.

Molecule `CC(=O)Nc1ccc(OCCN(Cc2ccccc2C(F)(F)F)c2ccc(C#N)c(C(F)(F)F)c2)cc1` displayed an IC50 of 440 nM.

Turning to `CCN(CCCN1CCCCC1)c1cc(C)nc(Nc2ccc(C(C)C)cc2)n1`, the IC50 amounted to 540 nM.

Take `O=C(NC1CCN(Cc2ccccc2O)C1)c1ccc(Cl)c(Cl)c1` (centres undefined): the IC50 came out at 890 nM.

`CN1CCC(NCc2cccc(-c3ccc(S(=O)(=O)NCc4ccccc4)cc3)c2)CC1`: the IC50 is 690 nM.

`CCN1CCN(CCNc2c3ccccc3nc3ccccc23)CC1` registered a half-inhibitory concentration (IC50) of 1020 nM.

Molecule `CC[C@H](C)[C@H](NC(=O)[C@H](CC1CCCCC1)[C@H](CC)N(O)C=O)C(=O)Nc1ccccn1` displayed an IC50 of 180 nM.

As for `CO/C(=C\C=C\c1cc2cc(Cl)c(Cl)cc2[nH]1)C(=O)NCCCN1CCCC[C@@H]1C`, the concentration for half-maximal inhibition (IC50) came to 750 nM.

For the molecule `COc1cc2nc(N3CCC(CNC(=O)c4cccc5cc[nH]c45)CC3)nc(N)c2cc1OC`, the IC50 worked out at 1580 nM.

As for `CCCCOC(C(=O)OCC1CCCN1C)(c1ccccc1)c1ccccc1` (centres undefined), the IC50 turned out to be 790 nM.

Turning to `CC(Cc1ccc(NC(=O)CCNCc2ccccc2)cc1)NCCc1cccc(Cl)c1` (centres undefined), the IC50 was found to be 150 nM.

For the molecule `Fc1ccc2nccc(NN=CC=Cc3ccccc3)c2c1`, the IC50 stood at 680 nM.

`COc1cc(NC(=O)C(c2ccc(Cl)cc2)C(C)C)cc(OC)c1OC` (centres undefined) returned an IC50 of 530 nM.

In turn, `CCOC(=O)c1sc(C(C)Nc2ccccc2)nc1-c1ccccc1` (centres undefined) had an IC50 of 330 nM.

`CN1CCCC1CCCOC(=O)c1ccc(N)cc1` (centres undefined): the IC50 was 920 nM.

Regarding `CCOC(=O)c1c(C)n(-c2ccccc2)c2ccc(OC(=O)c3ccc(S(=O)(=O)N(CC)CC)cc3)cc12`, the IC50 was determined as 750 nM.

Molecule `COc1cc(NC(=O)c2sc(-c3ccc(Cl)cc3)cc2Cl)ccc1OCCN1CCCC1` came in with an IC50 of 980 nM.

Take `COc1ccc2nccc([C@@H](O)CN3CCC(NCc4ccc5c(c4)oc(=S)n5C)CC3)c2c1`: the IC50 is 190 nM.

`CCCN1CCN(c2cc(NCC)c3c4c(onc24)-c2ccccc2C3=O)CC1`: the IC50 was found to be 1060 nM.

In turn, `c1ccc(CC2=NCCN2)cc1` had a 50% inhibitory concentration (IC50) of 190 nM.

Regarding `O=C(Nc1cc(Cl)ccc1O)c1ccc(Oc2ccc(C(=O)Nc3cc(Cl)ccc3O)cc2)cc1`, the IC50 amounted to 920 nM.

The molecule `O=C(NC1CCN(c2ccnc3ccccc23)C1)c1ccc(OC(F)(F)F)cc1` (centres undefined) had an IC50 of 1150 nM.

`COc1ccc(CCNCc2cc3c(C(C)(C)C)nn(-c4ccc(Cl)cc4)c3[nH]c2=O)cc1OC` had an IC50 of 150 nM.

Turning to `O=C(Cc1cccc(Cl)c1)Nc1cccc(-c2c[nH]c3nc(Nc4cccc(O)c4)ncc23)c1`, the IC50 worked out at 730 nM.

On to `COc1ccc(CNCc2ccc(-c3cccc(-c4nc5c(C)cccc5[nH]4)c3)cc2)cc1`, for which the IC50 came out at 130 nM.

As for `COc1cccc(CCNC(C)Cc2ccc(OCCCCOc3ccccc3)cc2)c1` (centres undefined), the IC50 worked out at 740 nM.

Molecule `NC(N)=NN=Cc1ccccc1OCc1ccccc1Cl` came in with an IC50 of 720 nM.

In the case of `CCCCN(CCCC)CCCCNc1c2ccc(Cl)cc2nc2ccc(OC)cc12`, the IC50 is 180 nM.

The molecule `CN(C)CCCNCc1ccc(-c2ccc(CNCCc3ccccc3)cc2)cc1` displayed an IC50 of 990 nM.

`OC(CNC1CCCCCC1)c1ccc(Cl)c(Cl)c1` (centres undefined) had a half-inhibitory concentration (IC50) of 690 nM.

As to `CC1CCN(Cc2ccc(NC(=O)c3cc4ccc5cccnc5c4[nH]3)cc2)CC1`, the IC50 is 780 nM.

`Cc1[nH]c(C)c(-c2ccc(-c3ccc(OC(F)(F)F)cc3)nc2)c(=O)c1Cl` returned an IC50 of 200 nM.

In the case of `COc1ccc(N2CCN(CCCCNC(=O)c3ccc(/C=C/c4ccc(Cl)c(Cl)c4)cc3)CC2)c(OC)c1`, the IC50 came to 710 nM.

With `CC12CN3CC(C)(CN(C1)C3c1cc(Br)ccc1O)C2O` (centres undefined), the IC50 came out at 230 nM.

`CC[C@H]1CN(C/C=C/c2ccc(OC)cc2)CC[C@H]1CCCc1ccnc2ccc(O)cc12` showed an IC50 of 660 nM.

Regarding `COc1ccc(-n2nc(C)c3c2NC(=O)CC3c2ccccc2OCc2ccccc2F)cc1` (centres undefined), the IC50 stood at 900 nM.

In the case of `COc1ccc2nc(NC3=NC4(c5ccccc5)N=C(Nc5nc6ccc(OC)cc6[nH]5)NC4(c4ccccc4)N3)[nH]c2c1` (centres undefined), the IC50 stood at 200 nM.

In turn, `NC(=O)c1cccc(Nc2nccc(Nc3ccc(Oc4cccc(Cl)c4)c(Cl)c3)n2)c1` displayed an IC50 of 1280 nM.

Take `CN1CC[C@@H](Oc2cc(C(=O)NCc3ccc(Cl)c(Cl)c3)ccc2C(F)(F)F)C1`: the concentration for half-maximal inhibition (IC50) worked out at 1250 nM.

The molecule `CCCC(CNCc1cccc(OCC)c1)CNc1cc(=O)c2ccccc2[nH]1` (centres undefined) displayed an IC50 of 850 nM.

As to `COc1cccc(OC)c1CN1CCC(N(C)CCCCCCCCN2CCC(OC(=O)Nc3ccccc3-c3ccccc3)CC2)CC1`, the half-maximal inhibitory concentration (IC50) amounted to 460 nM.

For `CCCc1cc(OC)c(C[C@H]2c3cc(O)c(Cl)cc3CCN2C)cc1OC`, the IC50 stood at 580 nM.

As for `COc1cc(C(=O)Nc2cccc(-c3cn4cccc(C)c4n3)c2)cc(OC)c1OC`, the concentration for half-maximal inhibition (IC50) worked out at 700 nM.

In the case of `CCOc1ccc2c(NN=Cc3ccccc3OC)cc(C)nc2c1`, the IC50 was 500 nM.

As to `COc1ccc(CCN2CCC(Nc3nc4ccccc4n3CCc3ccc(OC)cc3)CC2)cc1`, the IC50 turned out to be 660 nM.

Take `O=C(O)C[C@H](NC(=O)CCCNC(=O)c1cccc(-c2ccc(Cl)c(Cl)c2)c1)C(=O)O`: the IC50 turned out to be 880 nM.

Consider `CC(=O)Nc1ccc(Nc2c3ccccc3nc3ccccc23)cc1`, for which the IC50 turned out to be 1020 nM.

Take `CCc1ccccc1N=C1c2c(cccc2[N+](=O)[O-])C(=O)C1C(C)=O` (centres undefined): the IC50 is 90 nM.

As for `Oc1ccc(Cl)cc1-c1cc(C(F)(F)F)nc(-c2ccccc2)n1`, the IC50 was determined as 750 nM.

With `C=CC[C@H](NC(=O)c1ccc(NS(=O)(=O)c2ccc3nc(N)[nH]c(=O)c3c2)cc1)C(=O)OCCCC`, the IC50 came to 150 nM.

For `O=C(Cn1cc(C(F)(F)F)cc(Cl)c1=O)N1CCN(S(=O)(=O)c2ccc(Cl)cc2)CC1`, the IC50 was 900 nM.

`O=C(NCc1ccccc1)NC(CCCN1CCC(Oc2cccc(Cl)c2)CC1)c1ccc(Cl)c(Cl)c1` (centres undefined) came in with an IC50 of 860 nM.

As to `CC(C)(C)c1cc(C(=O)N2CCN(c3cnccn3)CC2)n(Cc2ccccc2)n1`, the IC50 stood at 1140 nM.

For `O=C1CCCN1CCCNCc1ccc(-c2cccc(-c3nc4ccc(F)cc4[nH]3)c2)cc1`, the IC50 was 660 nM.

For `O=C(Nc1cccc(-c2csc(-c3nc4ccccc4[nH]3)c2)c1)c1cccnc1`, the IC50 was found to be 230 nM.

Turning to `CC(=O)c1ccc(N2CCN(CCC3(c4ccc(Cl)c(Cl)c4)COCN(C(=O)c4ccccc4)C3)CC2)cc1` (centres undefined), the IC50 was found to be 920 nM.

For the molecule `O=C(CCc1ccco1)NC1CCN(CC2(c3ccc(Cl)cc3)CCC2)CC1`, the IC50 was determined as 1450 nM.

In turn, `O=C(Nc1ccc(-c2nc3ccccc3[nH]2)cc1)c1ccc(N2CCCC2)c([N+](=O)[O-])c1` registered an IC50 of 680 nM.

Regarding `O=c1[nH]ccc2nc(N[C@@H]3CCNC3)nc(Nc3cc(Cl)cc(Cl)c3)c12`, the concentration for half-maximal inhibition (IC50) came out at 740 nM.

As to `COc1ccc2ccccc2c1C=NNc1cc(C)nc2c(C)cccc12`, the IC50 came to 820 nM.

On to `O=C(CC1CCCC1)Nc1ccc2c(c1)CCC2`, for which the IC50 turned out to be 870 nM.

Molecule `CCOc1cc(C)ccc1C1CCN(CCCCNC(=O)c2nc(-c3ccc(C(F)(F)F)cc3)[nH]c2C)CC1` gave an IC50 of 730 nM.

Molecule `CC[C@@]1(O)C(=O)OCc2c1cc1n(c2=O)Cc2c-1nc1cc3c(cc1c2CN1CCN(C)CC1)OCCO3` yielded an IC50 of 450 nM.

As to `CCNc1cc(C)nc(Nc2ccccc2)n1`, the IC50 worked out at 880 nM.

`Cc1ccc(Nc2nc(NN=Cc3cc4c(cc3Br)OCO4)nc(Nc3ccc([N+](=O)[O-])cc3)n2)cc1C` came in with an IC50 of 750 nM.

Turning to `CCCc1cc(Cc2cnc(N)nc2N)cc(OC)c1OC`, the IC50 was 990 nM.

As for `O=C(/C=C/c1ccc(F)cc1)NC1CCC(CCN2CCc3ccc(-n4cccn4)cc3CC2)CC1` (centres undefined), the IC50 turned out to be 1440 nM.

With `Cc1cccc2[nH]c(-c3cccc(-c4cccc(NC(=O)Cc5cnc[nH]5)c4)c3)nc12`, the half-maximal inhibitory concentration (IC50) was 670 nM.

Turning to `COc1ccc(C2C(C(=O)Nc3ccccc3)=C(C)Nc3c(C(=O)Nc4ccccc4)cnn32)cc1` (centres undefined), the IC50 amounted to 1310 nM.

Regarding `CCCC(CNC(=O)c1cc2c(Cl)cc(Cl)cc2[nH]1)CNc1cc(=O)c2ccccc2[nH]1` (centres undefined), the IC50 worked out at 900 nM.

The molecule `COc1c(C2CCN(CCCCNC(=O)c3cc(-c4ccc(Cl)cc4)oc3C)CC2)ccc2c1CCCC2` returned an IC50 of 880 nM.

For the molecule `NC(N)=NC(=O)Nc1cc(F)c(Cl)c(Cl)c1`, the half-maximal inhibitory concentration (IC50) is 500 nM.

For `COc1ccc(-c2ccc(NC(=O)c3ccc(F)cc3)cc2)cc1CNC(C)C`, the IC50 stood at 760 nM.

In turn, `NC(=O)c1ccc(NCC(=O)Nc2cccc(-c3cccc(-c4nc5ccc(F)cc5[nH]4)c3)c2)cc1` showed an IC50 of 870 nM.
